# Assay results published in patent publication US9708359B2, “Pyrrolopyrimidine nucleosides and analogs thereof” (Chimerix, Inc., priority 2015, dated 2017).
# Entries after “also recorded” stand apart in the source; their conditions may differ.
# Assays:
# [1] = test system: HSV-2; assay: Plaque-reduction assay for HSV-2; format: cell-based, herpes simplex virus 2; settings: Human alphaherpesvirus 2; HSV-2, HFF cells
# Method: Plaque-Reduction Assays for HSV-1, HSV-2, VZV and HCMV:
# Monolayers of cells were prepared in six-well plates and incubated at to allow the cells to reach confluency. Media was then aspirated from the wells and of virus was added to each of three wells to yield 20-30 plaques in each well. The virus was allowed to adsorb to the cells for 1 h and the plates were rocked gently every 15 min to redistribute the media. Compounds were diluted in maintenance cell culture media consisting of MEM with Earl's salts supplemented with 2% FBS, L-glutamine, penicillin, and gentamycin. Solutions were added to duplicate wells and the plates were incubated for various times, depending on the virus used. The plaque-reduction assay with HSV-1 strain F was performed in a similar manner but with Vero cells infected one day after plating. For HSV-1 and -2, the monolayers were stained with 1% crystal violet in 20% methanol and the unbound dye removed by washing with dH2O. For assays with HCMV and VZV, the cell monolayer was stained with 1% Neutral Red solution for 4 h then the stain was aspirated and the cells were washed with PBS. For all assays, plaques were enumerated using a stereomicroscope and the concentration of compound that reduced plaque formation by 50% (EC50) was interpolated from the experimental data. […]
# [2] = test system: ENTV-71; assay: microbe, parasite or virus in culture; format: cell-based; settings: Enterovirus, Vero 76; ENTV-71, Vero76 cells
# [3] = test system: RSV; assay: microbe, parasite or virus in culture; format: cell-based; settings: human respiratory syncytial virus, MA104, MA-104 cells
# [4] = test system: murine norovirus (MNV) CR3; assay: Study No. 1: efficacy against Murine Norovirus infection in mice; format: in vivo, BALB/c mice; settings: for murine norovirus titer in tissue and feces: 30, 100, 300 mg/kg/day BID oral gavage from day −2, 10^6 PFU, day 3 post-infection
# Method: Study No. 1 evaluated the efficacy of twice-daily dosing of Compound 1 over a range of 30 mg/kg to 300 mg/kg, initiated prior to infection of mice with 10^6 plaque-forming units (PFU) of murine norovirus (MNV) CR3. A control group of mice treated with vehicle was also included. All doses were started 2 days (39 hours) prior to infection.
# Compound was delivered twice daily at indicated doses via oral gavage. A control group of mice treated with vehicle only was also included. Mice were infected with murine norovirus by pipetting virus into mouth 2 days after the first dose. Mice were housed on metal grates and combined fecal output was collected every 24 hours. Tissues (distal ileum and cecum) and individual fecal pellets were harvested on day 3 post inoculation. All samples were titered by plaque assay.
# For both studies, compound was delivered via oral gavage at the indicated doses and times prior to infection. Mice were infected with murine norovirus CR3 by pipetting virus into mouth 3 hours after the first day 0 dose of Compound 1 was given. Following infection, compound was administered twice daily through day 3 post-infection.
# The mice used were ˜20 gram, 8-12 week old female BALB/c mice in groups of 5. Mice were housed on metal grates and combined fecal output was collected every 24 hours, starting at day −1. Tissues (˜1 cm of distal ileum and cecum) and individual fecal pellets were harvested on day 3 post-infection and weighed. All samples were titered by plaque assay (qRT-PCR as back-up when titers are too low); titers were normalized to gram of tissue or feces. On day 3, duplicate samples of tissue (˜1 cm of distal ileum and cecum) were collected, rinsed in PBS, and snap frozen; serum and a duplicate feces sample were also collected on day 3 and snap frozen; this set of sample was submitted for MS analysis to assess drug bioavailability.
# [5] = test system: human norovirus; assay: Efficacy of Compound 1 Against Human Norovirus (viral titer); format: cell-based; settings: cells pretreated with 25 μM compound for two hours; duplicate (FIGS. 4-6)
# Method: The efficacy of compound 1 for inhibiting norovirus was compared to DMSO (as a control), compound 2, and 2′-C-methylcytidine triphosphate (2′CmeC TP). Cells were pretreated with 25 μM of experimental compound for two hours. Virus inoculum was added for two hours, and unbound virus washed off and fresh media and fresh experimental compound was added.
# [6] = Solubility in water (rework study); format: physicochemical
# Method: A brief rework study for compound 1, (containing 1.6% benzoic acid per AUC, HPLC) was executed in 10 vol of water (1 g in 10 mL):
# All three experiments gave compound 1 with less than 0.1% benzoic acid (UAC, HPLC). The slurries were fluid, were easily stirred and filtration was fast. […] Without wishing to be bound by theory, a loss of NMT than 1% is expected (solubility 1 mg/mL). HPLC data for compound 1 were obtained with a method suitable for polar compounds using a Zorbax Eclipse Plus C18 column (water/ACN/TFA, 97.5/2.5/0.05). This is the same column used for steps 1 and 2.
structure (smiles),measurement,setting,value
"Cc1nc(N)c2c(C(N)=O)cn([C@@H]3O[C@H](CO)[C@@H](O)[C@H]3O)c2n1 [Compound 1, 4-amino-7-((2R,3R,4S,5R)-3,4-dihydroxy-5-(hydroxymethyl)tetrahydrofuran-2-yl)-2-methyl-7H-pyrrolo[2,3-d]pyrimidine-5-carboxamide]",EC50,[1],> 60 µM
same,EC50,[2],> 100 µM
same,EC50,[3],31 µM
same,murine norovirus titer in tissue and feces,[4],effective in reducing the titer of murine norovirus in both tissue and feces
same,murine norovirus titer in tissue and feces,[4]; listed as compound 1,reduce the viral load in mice infected with murine norovirus in a dose-dependent manner; also recorded: showed a reduction in PFU/gram with increasing dose
same,virus titer in tissue and feces compared with vehicle,[4]; twice-daily 300 mg/kg,significant reduction in virus titer
same,viral titer,[5],increased less than one order of magnitude
same,solubility,[6],1000 µg/mL
